Assay results from patent publication US5912164A, “Stereoselective hydrolysis of chiral carboxylic acid esters using esterase from ophiostoma or ceratocystis” (Laboratorios Menarini S.A., priority 1993, dated 1999).

How the values were obtained:
[1] = tested on: AJ3 crude enzyme solution (esterase); assay: Hydrolysis of racemic ketoprofen esters in 2-phase biotransformations; assay type: biochemical, Ophiostoma novo-ulmi; conditions: ester 20 g/l in cyclohexane, 24 hours, 25° C.
Procedure: Various esters of racemic ketoprofen were dissolved in cyclohexane to a concentration of 20 g/l. The esters used were methyl, ethyl, n-propyl, n-butyl, n-pentyl, n-hexyl. In the case of methyl ester, a suspension was prepared due to low solubility of ester in cyclohexane.
To 5 ml aliquots of crude enzyme solution in glass vials was added 2 ml of each of the six racemic ketoprofen ester solutions above. […] Reactions were conducted with shaking for 24 hours at 25° C.

[2] = tested on: cloned AJ3 esterase in recombinant E. coli CS62 lysate; assay: Hydrolysis of racemic butyrate ester of 2-methoxycyclohexanol by lysate of CS62; assay type: biochemical, Ophiostoma novo-ulmi; conditions: 41 hours, 25° C., pH 8.0
Procedure: Cells (grown as per Example 7) were resuspended at 5% w/v in 100 mM TRIS, pH 8, and lysed by sonication for 15 minutes (10 seconds on, 10 seconds off cycle) at an amplitude of 20 μm in a Soniprep 150. The lysate was centrifuged to remove cell debris and the supernatant used in biotransformation.
10 g of the racemic butyrate ester of 2-methoxycyclo-hexanol was mixed with 100 ml of 100 mm TRIS, pH 8, by magnetic stirring. 20 ml of the above lysate of CS62 was added. The temperature of the biotransformation was controlled at 25° C. and the pH at 8.0 by the addition of 1M NaOH. Samples were removed and monitored for 2-methoxycyclohexanol formation. NaCl was added to saturation to 1 ml sample which was then extracted into 1 ×5 volumes of toluene. The toluene layer was removed and dried by the addition of MgSO4. The sample was then analysed by GC. A 15 m DB-5 column with 0.25 μm film was used with helium as the carrier, at 55.2 kPa, the oven temperature was 60° C. for 1 minute, raised at 10° C./min to 150° C., and this temperature was then held for a further minute.
The ee of the 2-methoxycyclohexanol formed was determined following derivatisation with trifluoroacetic anhydride (TFAA). 20 μl of TFAA was added to 1 ml of the toluene-extracted sample which was then allowed to stand at ambient temperature for 30 minutes. […]

Cells of AJ3 = assay: Whole-broth biotransformation of racemic ethyl ketoprofen by growing cells of AJ3; assay type: cell-based, Ophiostoma novo-ulmi; conditions: 20 g/l ester in broth, 120 hours
Procedure: This was shaken for 30 hours at 23° C. and then 2.5 ml transferred into a second 250 ml baffled flask containing 30 ml of the same medium as in Example 1. Following growth for 40 hours, at 23° C. with shaking, racemic ethyl ketoprofen was added to the broth to a concentration of 20 g/l.

[3] = tested on: esterase of AJ3 (Ophiostoma novo-ulmi), crude enzyme solution; assay: Hydrolysis of racemic ethyl naproxen in cyclohexane by crude enzyme lysate of AJ3; assay type: biochemical; conditions: 72 hours, 23° C.
Procedure: This culture was grown with shaking at 30° C. for 48 hours. 10 ml was then transferred into 90 ml fresh medium in a 1 liter shake flask and grown for a further 8 hours at 30° C. with shaking. This flask was used to inoculate a 2.8 1 laboratory fermenter with 1.5 1 medium plus 5 g/l glucose and 0.5 ml/l of a silicone/PPG-based antifoam (XF0371, Ivanhoe Chemicals, Ill., U.S.A.). This fermenter was operated for 48 hours with agitation and aeration, controlled to maintain a DOT >50% air saturation and temperature and pH at 30° C. and 6.0 respectively.
At the completion of the fermentation the cells were harvested by centrifugation and the pellet resuspended at 10% w/v (based on wet cell weight) in lysis buffer, i.e. 0.1M sodium carbonate in 5% Triton X-100 aqueous solution. Lysis was carried out overnight at 8° C. with shaking after which the enzyme activity-containing lysate was separated from the cell debris by centrifugation. The lysate was then diluted 50% in lysis buffer, prior to its being used to carry out resolution.
Racemic ethyl naproxen (ethyl 6-methoxy-α-methyl-2-naphthaleneacetate) was dissolved in cyclohexane to a concentration of 19 mg/ml. 2 ml of this solution was then mixed with 5 ml of prepared crude enzyme solution in a glass vial and reacted with shaking for 72 hours at 23° C.

[4] = tested on: cloned AJ3 esterase in recombinant E. coli CS62 lysate; assay: Hydrolysis of racemic ethyl naproxen by cell-free lysate of recombinant strain CS62; assay type: biochemical, Ophiostoma novo-ulmi; conditions: 1 hour, 25° C.
Procedure: Cells of CS62 grown and stored as described above were used to provide enzyme for use in the hydrolysis of ethyl naproxen. Cells were resuspended at 10% w/v in 0.1M sodium carbonate, pH 10, and lysed by sonication for 10 minutes (10 seconds on, 10 seconds off cycles) at 4° C. The enzyme lysate was then centrifuged to obtain a cell-free supernatant solution.
Racemic ethyl naproxen was dissolved in cyclohexane to a concentration of 100 g/l. 200 μl of this solution was added to 1 ml enzyme solution and shaken for 1 hour at 25° C. The phases were then separated and the aqueous phase analysed (by reverse phase HPLC) for naproxen accumulation.

[5] = Screen of 12 commercially-available lipase/esterase preparations on the butyrate ester; assay type: biochemical; conditions: racemic butyrate ester of 2-methoxycyclohexanol as substrate
Source text: The stereo-specific activity of this biocatalyst is considered unusual. […] This is potentially advantageous in that it enables access to the (S)-enantiomer as the alcohol without having to exceed 50% conversion.

COC(=O)C(C)c1cccc(C(=O)c2ccccc2)c1 (racemic) [METHYL]
ACID PRODUCED [1]: 1.7 mg/mL | CONVERSION [1]: 42.3% | EE (%)(S)-enantiomer [1]: 90%

CCCC(=O)OC1CCCCC1OC (racemic) [butyrate ester of 2-methoxycyclo-hexanol]
conversion of the substrate [2]: 44% | ee of the 2-methoxycyclohexanol in favour of the (S)-enantiomer [2]: 96%

CCOC(=O)C(C)c1cccc(C(=O)c2ccccc2)c1 (racemic) [ethyl ketoprofen]
enantiomeric excess of ketoprofen acid formed, in favour of the (S)-enantiomer (Cells of AJ3): 96% | hydrolysis of the added ester (Cells of AJ3; HPLC): 18.2%

CCOC(=O)C(C)c1ccc2cc(OC)ccc2c1 (racemic) [ethyl naproxen, ethyl 6-methoxy-α-methyl-2-naphthaleneacetate]
enantiomeric purity of naproxen, (S) enantiomer (equivalent to the ee) [3]: 96.5% | ee (enantiomeric excess) of naproxen in favour of the (S) enantiomer ([3]; HPLC): 93% | CONVERSION ([3]; cyclohexane 2-phase): about 40% | accumulation of naproxen in aqueous phase ([3]; ester 19 mg/ml in cyclohexane, 2 ml + 5 ml crude enzyme): 2.76 mg/mL | CONVERSION [4]: about 26% | ee in favour of the S-enantiomer [4]: > 95% | naproxen accumulated in aqueous phase ([4]; ester 100 g/l in cyclohexane, 200 μl + 1 ml enzyme): 5.3 g/L

CCCCOC(=O)C(C)c1cccc(C(=O)c2ccccc2)c1 (racemic) [n-BUTYL]
ACID PRODUCED [1]: 0.3 mg/mL | CONVERSION [1]: 8.0%

CCCCCCOC(=O)C(C)c1cccc(C(=O)c2ccccc2)c1 (racemic) [n-HEXYL]
ACID PRODUCED [1]: 0.09 mg/mL | CONVERSION [1]: 2.3%

CCCCCOC(=O)C(C)c1cccc(C(=O)c2ccccc2)c1 (racemic) [n-PENTYL]
ACID PRODUCED [1]: 0.18 mg/mL | CONVERSION [1]: 4.4%

CCCOC(=O)C(C)c1cccc(C(=O)c2ccccc2)c1 (racemic) [n-PROPYL]
ACID PRODUCED [1]: 1.0 mg/mL | CONVERSION [1]: 25.6% | EE (%)(S)-enantiomer [1]: 86%

B1: porcine pancreatic lipase: commercially-available lipase/esterase preparation (protein, UniProt P00591 1-450, looked up)
Pancreatic triacylglycerol …: SEVCFPRLGCFSDDAPWAGIVQRPLKILPWSPKDVDTRFLLYTNQNQNNYQELVADPSTITNSNFRMDRKTRFIIHGFIDKGEEDWLSNICKNLFKVESVNCICVDWKGGSRTGYTQASQNIRIVGAEVAYFVEVLKSSLGYSPSNVHVIGHSLGSHAAGEAGRRTNGTIERITGLDPAEPCFQGTPELVRLDPSDAKFVDVIHTDAAPIIPNLGFGMSQTVGHLDFFPNGGKQMPGCQKNILSQIVDIDGIWEGTRDFVACNHLRSYKYYADSILNPDGFAGFPCDSYNVFTANKCFPCPSEGCPQMGHYADRFPGKTNGVSQVFYLNTGDASNFARWRYKVSVTLSGKKVTGHILVSLFGNEGNSRQYEIYKGTLQPDNTHSDEFDSDVEVGDLQKVKFIWYNNNVINPTLPRVGASKITVERNDGKVYDFCSQETVREEVLLTLNPC
stereo-specificity of hydrolysis [5]: specificity for the (R)-enantiomer
